One experiment concerns SC-3. Nature of the experiment: Growth inhibition of androgen-dependent clonal cell line SC-3, derived from Shionogi carcinoma 115. In kind it is functional, Mus musculus. Further details: unit not given here.
In experiment [1] the test system is HL-60. In words: Production of TNF-alpha by HL-60 cells in the presence of 50 nM okadaic acid with 300 nM test compound.
Experiment [2] concerns HL-60. Nature of the experiment: Production of TNF-alpha in HL-60 cells in the presence of 50 nM okadaic acid with 30 uM test compound.

In the experiment on SC-3, `C[C@H](c1cccc2ccccc12)N1C(=O)c2c(F)c(F)c(F)c(F)c2C1=O` came in with a No. of cells of 14. In the experiment on HL-60 [1], the Production was determined as 101%.
Compound `CC(C)C(=O)Nc1ccc([N+](=O)[O-])c(C(F)(F)F)c1` [FLUTAMIDE] registered a No. of cells in the experiment on SC-3 of 66. For the same compound, in the experiment on HL-60 [2], the Production was found to be 103%.
Compound `O=C1c2c(F)c(F)c(F)c(F)c2C(=O)N1Cc1c(Cl)cccc1Cl` showed a No. of cells in the experiment on SC-3 of 45. The Production in the experiment on HL-60 [1] is 76%.
In turn, `O=C1c2ccccc2C(=O)N1Cc1c(Cl)cccc1Cl` registered a No. of cells with SC-3 of 69. Besides, in the experiment with HL-60 [2], the Production worked out at 39%.
In the experiment with SC-3, `C[C@@H](c1ccccc1)N1C(=O)c2c(F)c(F)c(F)c(F)c2C1=O` had a No. of cells of 16. The Production in the experiment with HL-60 [1] came out at 2%.
The matching figures for `C[C@@H](C1CCCCC1)N1C(=O)c2c(F)c(F)c(F)c(F)c2C1=O`: 2 and 10%.
`O=C1c2ccccc2C(=O)N1CNc1ccccc1` gave a No. of cells with SC-3 of 91. Besides, the Production in the experiment on HL-60 [2] is on record as 73%.
On to `C[C@H](C1CCCCC1)N1C(=O)c2c(F)c(F)c(F)c(F)c2C1=O`, for which, in the experiment on SC-3, the No. of cells turned out to be 5. Further, the Production in the experiment with HL-60 [1] worked out at 65%.
Consider `CC(=O)C(CN1C(=O)c2ccccc2C1=O)C(C)=O`, for which the No. of cells in the experiment with SC-3 is given as 49. The Production in the experiment on HL-60 [2] amounted to 72%.
Consider `C[C@H](c1ccccc1)N1C(=O)c2c(F)c(F)c(F)c(F)c2C1=O`, for which the No. of cells in the experiment on SC-3 amounted to 3. The Production with HL-60 [1] came out at 70%.
The matching figures for `C[C@@H](c1cccc2ccccc12)N1C(=O)c2c(F)c(F)c(F)c(F)c2C1=O`: 9 and 2%.
For `O=C1c2c(F)c(F)c(F)c(F)c2C(=O)N1CC1Cc2ccccc2C1` the same measures were 61 and 43%.
The compound `O=C1c2ccccc2C(=O)N1CC1Cc2ccccc2C1` registered a No. of cells in the experiment on SC-3 of 56. Besides, in the experiment with HL-60 [2], the Production is on record as 50%.

These data come from ChEMBL document CHEMBL1130449, “Potent novel nonsteroidal androgen antagonists with a phthalimide skeleton” (1997).
